Results from US20190060391A1, “POWDER FORMULATION HAVING HY[…] HYP[…] AND METHOD FOR PREPARING THE SAME” (INFINITUS (CHINA) COMPANY LTD., priority 2017, published 2019).
Counter-ions that a name gives are not always drawn.

Key:
[1] = system: alloxan-induced mice; assay: Fasting blood glucose and glucose tolerance in alloxan hyperglycemia model mice; type: in vivo, ICR mouse; conditions: for Blood glucose decreasing rate of the mice: positive control 230 mg/Kg; for Blood glucose of the mice: positive control 230 mg/kg
Protocol: (§1) Method for preparing the solution of the test sample (500 mg/kg): 2.3011 g of the test sample was precisely weighed and 46 mL of distilled water was added to prepare a solution of 0.05 g/mL, i.e., high-dose group of the test sample (500 mg/kg, 1 mL/100 g), which was equal to 30 times the recommended amount for human.
as §1, with “(170” for “(500”, “0.6970” for “2.3011”, “41” for “46”, “0.017” for “0.05”, “medium-dose” for “high-dose”, “10” for “30”
as §1, with “(85” for “(500”, “0.3396” for “2.3011”, “40” for “46”, “0.0085” for “0.05”, “low-dose” for “high-dose”, “5” for “30”
Method for preparing the positive control sample: the metformin hydrochloride tablet was milled into fine powders by a mortar, 0.1470 g powder was precisely weighed and transferred to a 10 mL-centrifugal tube. 5 mL of distilled water was added by a pipette to prepare a solution with a concentration of 0.023 g/mL, i.e., metformin positive control group for mouse (230 mg/kg, 0.1 ml/10 g), which was equal to 13.5 times the recommended amount for human.
The administration of test sample to the rats lasted for 45 days, and the administration to mice lasted for 55 days.
After 3-day of adaptive housing with normal feeding, 15 mice were randomly chosen and subjected to fasting for 3 to 5 hours. The fasting blood glucose value was measured as the basal blood glucose value of this batch of animals. Thereafter, the mice were subjected to fasting for 24 hours (with free access to water). Except for the blank group and the negative control group, 96 mg/kg of alloxan (fresh prepared) were injected via caudal vein to establish the model, at an administration amount of 0.1 mL/10 g. 4 days later, the animals were fasted for 3 to 5 hours and the blood glucose was tested. Animals with blood glucose of 10 to 25 mmol/L were considered as hyperglycemia model animals. The fasting blood glucose value of mice was tested every two week. After the experiments, animals in each group were fasted for 3 to 4 hours, and the fasting blood glucose, glucose tolerance, blood glucose decreasing rate and the area under the blood glucose curve were tested.

[2] = Body weight of mice; type: in vivo, ICR mouse; conditions: alloxan mice, positive control 230 mg/kg
Description: The mice were weighed after 1-day adaptive feed, and the mice were weighed once a week and recorded. The administration of test sample to the rats lasted for 45 days, and the administration to mice lasted for 55 days.

[3] = Organ coefficient of mice; type: in vivo, ICR mouse; conditions: alloxan mice, positive control 230 mg/kg
Protocol: The mice were subjected to euthanasia and dissection. Hearts, livers, spleens, lungs, kidneys and pancreases of the mice were weighed, imaged and recorded, respectively. The organ coefficients were calculated. In addition, pancreases from each group were respectively immersed into formalin-containing bottles, and the sections were sent for pathological examination.
After administration of the test sample, the hearts, livers, spleens, lungs, kidneys and pancreases of the mice in each group were weighed respectively, and organ coefficients of each group were compared.

[4] = system: diabetic rats; assay: Fasting blood glucose and glucose tolerance in diabetic rats (high calorie feed plus alloxan); type: in vivo, SD rat; conditions: for Blood Glucose at 0 hour / Blood Glucose at 2th hour / Blood Glucose at 0.5 hour: rats, positive control 170 mg/kg
Protocol: as §1
as §1, with “(170” for “(500”, “0.6970” for “2.3011”, “41” for “46”, “0.017” for “0.05”, “medium-dose” for “high-dose”, “10” for “30”
as §1, with “(85” for “(500”, “0.3396” for “2.3011”, “40” for “46”, “0.0085” for “0.05”, “low-dose” for “high-dose”, “5” for “30”
Method for preparing the positive control sample: the metformin hydrochloride tablet was milled into fine powders by a mortar, 0.9329 g powder was precisely weighed and transferred to a 100 mL-beaker. 43 mL of distilled water was added by using a 100 mL-graduated cylinder, preparing solution with a concentration of 0.017 g/mL, i.e., metformin positive control group for rat (170 mg/kg, 1 ml/100 g), which was equal to 10 times the recommended amount for human.
After 5-day of adaptive housing with normal feeding, the rats were fasted for 3 to 4 hours and blood samples were taken from the tails. The fasting blood glucose value, which was the blood glucose value before administration of glucose (0 hour), was tested. After administration of 2.5 g/kgBW glucose, the blood glucose level was tested at the 0.5 hour and the 2nd hour as the basal value of that batch of animals. The rats were divided into 6 groups according to the blood glucose value at 0 hour and the 0.5 hour, including one blank group, one positive control group, one model group and 3 dosing groups of the test sample. There were 20 rats in the high-dose group, and 18 rats in the other groups. The blank group was not treated. The positive control group was administered with metformin solution by intragastric gavage. The 3 dosing groups of the test sample were administered with test sample solutions of different concentrations by intragastric gavage. The model group was administered with the solvent of the same volume. […] Normal feeds were provided to all groups. One week later, high calorie feeds were provided to the model group, positive control group and three dosing groups of the test sample. 30 days after the feeding, the rats were fasted for 24 hours. The model group and the three dosing groups of the test sample were respectively peritoneal injected with alloxan of 200 mg/kgBW (the injection amount was […] weight) on the base of high calorie feed. The model group and 3 dosing groups of the test sample were continuously fed on high calorie feeds for 3 days. When the experiment ended, animals in each group were fasted for 3 to 4 hours, and the fasting blood glucose, glucose tolerance and area under the blood glucose curve were measured.

[5] = system: diabetic rats; assay: Cholesterol level and triglyceride level in serum of rats; type: in vivo, SD rat; conditions: positive control 170 mg/kg
Protocol: After the experiment, the rats in each group were fasted for 3 to 4 hours and peritoneal injected with pentobarbital sodium solution (1 mL/100 g) for anesthesia. 8 mL of blood was taken from the femoral artery and centrifuged at 4500 r for 6 minutes at 4° C. The serum was taken and the cholesterol level was tested by a cholesterol kit, and the triglyceride level was tested by a triglyceride kit.

[6] = Body weight of rats; type: in vivo, SD rat; parameters: unit not given here; conditions: diabetic rats, positive control 170 mg/kg
Description: The rats were weighed after 1-day adaptive feed, and the rats were weighed once a week and recorded.

[7] = Organ coefficient of rats; type: in vivo, SD rat; conditions: diabetic rats, positive control 170 mg/kg
Protocol: The rats were subjected to euthanasia and dissection. Hearts, livers, spleens, lungs, kidneys and parts of the pancreases of the rats were weighed, imaged and recorded, respectively. The organ coefficients were calculated. In addition, pancreases from each group were respectively immersed into formalin-containing bottles.

CN(C)C(=N)N=C(N)N [metformin, metformin hydrochloride]
Blood glucose decreasing rate of the mice ([1]; 45 d): −20.06% ± 0.30
Blood glucose decreasing rate of the mice ([1]; 55 d): 21.60% ± 0.48
Blood glucose of the mice ([1]; 0 d): 22.87 ± 3.66 mmol/L
Blood glucose of the mice ([1]; 16 d): 13.60 ± 4.82 mmol/L
Blood glucose of the mice ([1]; 30 d): 15.57 ± 5.85 mmol/L
Blood glucose of the mice ([1]; 45 d): 18.28 ± 5.86 mmol/L
Blood glucose of the mice ([1]; 55 d): 17.93 ± 10.23 mmol/L
Effect on fasting blood glucose vs model group (in words) ([1]; positive control group): significantly improved symptom of the hyperglycemia
Changes of body weight of mice ([2]; 1 d): 21.1 ± 2.0 g
Changes of body weight of mice ([2]; 2 d): 23.3 ± 2.3 g
Changes of body weight of mice ([2]; 6 d): 22.1 ± 3.1 g
Changes of body weight of mice ([2]; 8 d): 22.8 ± 5.8 g
Changes of body weight of mice ([2]; 11 d): 23.1 ± 4.0 g
Changes of body weight of mice ([2]; 20 d): 25.6 ± 5.4 g
Changes of body weight of mice ([2]; 27 d): 25.3 ± 4.2 g
Changes of body weight of mice ([2]; 34 d): 27.8 ± 4.1 g
Changes of body weight of mice ([2]; 41 d): 29.1 ± 4.8 g
Changes of body weight of mice ([2]; 48 d): 27.0 ± 5.4 g
Changes of body weight of mice ([2]; 55 d): 27.2 ± 5.2 g
Heart Coefficient [3]: 0.50 ± 0.09
Kidney Coefficient [3]: 2.17 ± 0.61
Liver Coefficient [3]: 4.96 ± 1.67
Lung Coefficient [3]: 0.67 ± 0.14
Pancreas Coefficient [3]: 0.76 ± 0.31
Spleen Coefficient [3]: 0.47 ± 0.37
Area under the blood glucose curve vs model group (in words) ([4]; diabetic rats, glucose tolerance test): showed significant differences
Effect on fasting blood glucose vs model group (in words) ([4]; diabetic rats, positive control group): significantly improved symptom of the hyperglycemia
Blood Glucose at 0 hour ([4]; 4D): 6.00 ± 0.87
Blood Glucose at 2th hour ([4]; 4D): 5.75 ± 0.97
Blood Glucose at 0.5 hour ([4]; 4D): 8.33 ± 1.54
Blood Glucose at 0 hour ([4]; 45D): 12.05 ± 4.98
Blood Glucose at 2th hour ([4]; 45D): 13.31 ± 5.83
Blood Glucose at 0.5 hour ([4]; 45D): 15.98 ± 4.87
Cholesterol Index [5]: 3.71 ± 1.57
Triglyceride Index [5]: 9.47 ± 5.29
Weight changes of rats ([6]; 3 d): 207.00 ± 10.91
Weight changes of rats ([6]; 6 d): 225.22 ± 12.01
Weight changes of rats ([6]; 8 d): 244.28 ± 10.93
Weight changes of rats ([6]; 12 d): 277.50 ± 8.25
Weight changes of rats ([6]; 22 d): 325.89 ± 18.39
Weight changes of rats ([6]; 28 d): 373.67 ± 21.40
Weight changes of rats ([6]; 35 d): 396.22 ± 23.32
Weight changes of rats ([6]; 42 d): 403.83 ± 21.22
Weight changes of rats ([6]; 45 d): 361.19 ± 27.43
Heart Coefficient [7]: 0.36 ± 0.06
Kidney Coefficient [7]: 0.88 ± 0.20
Liver Coefficient [7]: 3.36 ± 0.48
Lung Coefficient [7]: 0.53 ± 0.15
Pancreas Coefficient [7]: 0.37 ± 0.13
Spleen Coefficient [7]: 0.16 ± 0.09
